Like-named read-outs stand apart in the source and are kept apart here. Marks after values point to notes of the source that are not given here.
Assays:
phosphodiesterase 3 = experiment: Phosphodiesterase 3 activity; type: biochemical; details: read-out: IC50, phosphodiesterase 3
bacteria = experiment: Bacterial reverse mutation assay; type: cell-based
[1] = In vitro induction of chromosome aberrations; type: cell-based
rat = experiment: In vivo micronucleus test in rat
dogs [2] = experiment: Single oral dose-escalation study in dogs; type: in vivo, dog; details: at 30 mg/kg/day
4-week study in dogs = type: in vivo, dog; details: dog
dogs [3] = experiment: 4-week study in dogs; type: in vivo, dog; details: dogs
[4] = First-in-human pharmacokinetics in healthy volunteers; type: in vivo; details: for Mean t1/2 / AUC(0-inf) / AUC(0-t) / Cmax / Tmax / Vd/F: healthy volunteers; for Mean t1/2 / AUC(0-inf) / AUC(0-t) / Cmax / Tmax / half-life / Vd/F: [SD]; for AUC(0-inf) / AUC(0-t) / Cmax / Tmax / half-life / Vd/F: human, plasma, po; for AUC(0-inf): Mean AUC0−inf; for AUC(0-t): Mean AUC0−t; for Cmax: Mean Cmax; for Tmax: Mean Tmax; for half-life: Mean t1/2, healthy volunteers
healthy volunteers [5] = experiment: Intensive ECG monitoring in healthy volunteers; type: in vivo, human
[6] = system: plasma cytokines, chemokines, and growth factors; type: in vivo, human; details: IL‐1β, IL‐2, IL‐4, IL‐6, IL‐8, IFNγ, TNFα; IL‐15, IL‐17A; MCP‐1, and IP‐10
Plasma protein binding = type: in vitro ADME, human, dog
healthy volunteers [7] = details: for AEs grade 1–2 CTCAE, % / AEs grade 3 CTCAE: ↑CK, % / Gastrointestinal disorders, % / Investigations, % / ↑ALT (%) / ↑CK (%) / ↓WBC (%) / SAEs: seizure (%) / Diarrhea, %: number of subjects (%); for Diarrhea, %: grade 1–2
mouse model of CML‐BC = details: cited from earlier work
[8] = system: stem cells derived from patients with CML‐BC or Philadelphia chromosome–positive acute lymphoblastic leukemia; details: in combination with tyrosine kinase inhibitors; cited from earlier work
[9] = system: pro‐inflammatory cytokines, chemokines, and growth factors; details: in vivo; cited from earlier work
[10] = 10 mg, oral 10 mg single dose FASTED (N = 16)
[11] = 10 mg, oral 10 mg single dose FED (N = 9)
[12] = 20 mg, oral 20 mg single dose FASTED (N = 14)
[13] = 10 mg single dose FASTED (N = 16)
[14] = 20 mg single dose FASTED (N = 14)

N#Cc1ccc(-c2cnc3ccc(-c4ccc(C(=O)N5CCOCC5)cc4)cn23)cc1 [ETC‐206]
IC50 (phosphodiesterase 3): 2.25 µM | mutagenicity (bacteria): did not show any mutagenicity | mutagenicity [1]: did not show any mutagenicity | mutagenicity (rat): did not show any mutagenicity | cardiovascular parameters (blood pressure, heart rate, cardiac repolarization) (dogs [2]): affected cardiovascular (CV) parameters | NOAEL at 4 weeks (4-week study in dogs; in vivo): 3 mg/kg/day | AUC(0-t) (4-week study in dogs; plasma, 3 mg/kg/day): 7230 ng·h/mL | Cmax (4-week study in dogs; plasma, 3 mg/kg/day): 935 ng/mL | highest unbound mean free fraction AUC0−last at NOAEL (dogs [3]): 670 ng·h/mL | highest unbound mean free fraction Cmax at NOAEL (dogs [3]): 11.8 ng/mL | bile duct proliferation (dogs [3]; 4 weeks, medium and high doses): minimal to mild | liver enzymes (ALT, alkaline phosphatase, gamma glutamyltransferase) (dogs [3]; 4 weeks, medium and high doses): increase in liver enzymes | dose proportionality ([4]; 10 to 20 mg single doses in fasted condition): showed dose proportionality | Mean t1/2 ([4]; oral 10 mg single dose FASTED (N = 16)): 22.95 [5.63] hour | Mean t1/2 ([4]; oral 10 mg single dose FED (N = 9)): 27.57 [5.68] hour | AUC(0-inf) [4, 10]: 24400 ng·h/mL | AUC(0-inf) [4, 11]: 30000 ng·h/mL | AUC(0-t) [4, 10]: 21900 ng·h/mL | AUC(0-t) [4, 11]: 28700 ng·h/mL | Cmax [4, 10]: 927 ng/mL | Tmax [4, 10]: 1.11 h | half-life [4, 10]: ~23 h | half-life [4, 11]: ~28 h | Vd/F [4, 10]: 13.9 L | AUC(0-inf) [4, 12]: 60300 ng·h/mL | AUC(0-t) [4, 12]: 57800 ng·h/mL | Cmax [4, 12]: 1950 ng/mL | Tmax [4, 12]: 1 h | half-life [4, 12]: 25.8 h | Vd/F [4, 12]: 12.5 L | relationship between ETC‐206 plasma concentrations and changes from baseline of QTcF (healthy volunteers [5]; mixed effects regression model, flat slope (P = 0.7) of each dose and condition): no relationship | proarrhythmic risks (healthy volunteers [5]; range of doses explored (10 and 20 mg single doses)): no evidence for ETC‐206 proarrhythmic risks | activity on plasma cytokines, chemokines, and growth factors [6]: did not show any activity | plasma protein binding in humans compared with dogs (Plasma protein binding): higher | serious adverse events related to ETC‐206 (healthy volunteers [7]; general safety): did not show any serious adverse events | AEs grade 1–2 CTCAE, % (healthy volunteers [7]; [13]): 9 (56) | AEs grade 3 CTCAE: ↑CK, % (healthy volunteers [7]; [13]): 0 | Gastrointestinal disorders, % (healthy volunteers [7]; [13]): 4 (25) | Investigations, % (healthy volunteers [7]; [13]): 5 (31) | ↑ALT (%) (healthy volunteers [7]; [13]): 1 (6) | ↑CK (%) (healthy volunteers [7]; [13]): 1 (6) | ↓WBC (%) (healthy volunteers [7]; [13]): 3 (19) | SAEs: seizure (%) (healthy volunteers [7]; 10 mg single dose FASTED (N = 16), not drug-related): 1 (6) ^a | AEs grade 1–2 CTCAE, % (healthy volunteers [7]; 10 mg single dose FED (N = 9)): 9 (100) | AEs grade 3 CTCAE: ↑CK, % (healthy volunteers [7]; 10 mg single dose FED (N = 9)): 0 | Gastrointestinal disorders, % (healthy volunteers [7]; 10 mg single dose FED (N = 9)): 2 (22) | Investigations, % (healthy volunteers [7]; 10 mg single dose FED (N = 9)): 1 (11) | SAEs: seizure (%) (healthy volunteers [7]; 10 mg single dose FED (N = 9)): 0 | ↑ALT (%) (healthy volunteers [7]; 10 mg single dose FED (N = 9)): 0 | ↑CK (%) (healthy volunteers [7]; 10 mg single dose FED (N = 9)): 0 | ↓WBC (%) (healthy volunteers [7]; 10 mg single dose FED (N = 9)): 1 (11) | AEs grade 1–2 CTCAE, % (healthy volunteers [7]; [14]): 11 (79) | Gastrointestinal disorders, % (healthy volunteers [7]; [14]): 3 (21) | Investigations, % (healthy volunteers [7]; [14]): 1 (7) | SAEs: seizure (%) (healthy volunteers [7]; [14]): 0 | ↑ALT (%) (healthy volunteers [7]; [14]): 0 | ↑CK (%) (healthy volunteers [7]; [14]): 0 | ↓WBC (%) (healthy volunteers [7]; [14]): 0 | AEs grade 3 CTCAE: ↑CK, % (healthy volunteers [7]; 20 mg single dose FASTED (N = 14), not drug-related): 1 (7) ^b | Diarrhea, % (healthy volunteers [7]; [13]): 3 (19) | Diarrhea, % (healthy volunteers [7]; 10 mg single dose FED (N = 9)): 2 (22) ^f | Diarrhea, % (healthy volunteers [7]; [14]): 3 (21) ^g | maximum administered dose (healthy volunteers [7]; single dose, fasted, no dose‐limiting toxicity, not the maximum tolerated dose): 20 mg | tumor growth (mouse model of CML‐BC; in combination with tyrosine kinase inhibitors): inhibited tumor growth | antitumor activity (mouse model of CML‐BC; single agent): no antitumor activity | survival of stem cells [8]: impeded survival | plasma levels of pro‐inflammatory cytokines, chemokines, and growth factors [9]: decrease plasma levels

— article PMC6951458 (Clinical and Translational Science, 2019)
